A short description of test [1]: microbe, parasite or virus in culture. Type of test: functional. The note with it: Mycobacterium tuberculosis.
Test [2] in a line: M. tuberculosis growth inhibition, HTS (AID 449762). Type of test: functional.
Test [3] is described as follows: Luminescent dose response cell-based high throughput screening assay for inhibitors of the Janus kinase 2 mutant JAK2V617F. [Related pubchem assays: 1446 (Primary screen.), 1521 (Confirmation assay.), 1486 (Counter screen.)]. The format is functional. (In general: Counterscreens check selectivity or assay interference.)
A short description of test [4]: HEK-293T viability loss, compound-treated – cell-based, uHTS hits, cytotoxicity control for B/T-cell NF-kB inhibitor project, dose response (AID 489019).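 Further: IC50 reflects cytotoxicity as loss of cell viability.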 Type of test: functional.
For test [5], the system named is Jurkat. Description: blockers of NF-kB activation in T cells – Jurkat, luciferase reporter, luminescence, B- and T-cell, dose response (AID 489004).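 Further: NF-kB luciferase reporter Jurkat cells stimulated with PMA plus ionomycin.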 Type of test: functional, cell-based. Particulars: Homo sapiens. For orientation: In a reporter assay the amount or activity of a reporter protein is the signal.
Test [6] in a line: DRD fibroblast viability loss – cell-based, non-viral oncogenic, luminescence, dose response (AID 1934). The format is functional. Particulars: Homo sapiens.
Test [7] has as its target Paired box protein Pax-8 (Homo sapiens, UniProt Q06710). Description: PAX8 transcriptional activity inhibition in RMG-I – RMG-I cells, luciferase, cherry-pick, dose response (AID 687027).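 Further: luciferase reporter driven by Pax8 target thyroperoxidase promoter measured by SteadyGlo luminescence.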 The format is functional, cell-based.
Test [8] is described as follows: general cell-killing toxicity readout – plate reader, dry powder samples, cytotoxicity control for PAX8 inhibitor project, dose response (AID 743021). Type of test: functional, cell-based.
Test [9] relates to BJ. Kind of test: cells. Type of test: functional, cell-based. The note with it: Homo sapiens.
In test [10] the test system is BJ. Description: growth inhibition of engineered Ras-driven BJ cells – cell-based, alamar blue fluorescence, cherrypicked samples, dose response (AID 2631).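 Further: confirmatory dose-response assay in RAS-dependent BJ fibroblasts engineered with TERT, LT and ST, with cytotoxicity read by fluorescence.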 The format is functional. The note with it: Homo sapiens. Background: Resazurin is reduced to fluorescent resorufin, in cell work by metabolically active cells.
Test [11] has as its system BJ. Kind of test: BJ-TERT fibroblast viability loss – cell-based, RAS-independent, luminescence, dose response (AID 1933). The format is functional. The note with it: Homo sapiens.
In test [12] the test system is BJ. Description: BJ-TERT-LT-ST fibroblast viability loss – cell-based, RAS-independent, luminescence, dose response (AID 1935).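 Further: BJ fibroblasts immortalized with TERT plus LT and ST oncogenes.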 The format is functional. The note with it: Homo sapiens.
The target of test [13] is T1, NADPH oxidase 1 (Homo sapiens, UniProt Q9Y5S8).
T1 sequence (Q9Y5S8 whole entry): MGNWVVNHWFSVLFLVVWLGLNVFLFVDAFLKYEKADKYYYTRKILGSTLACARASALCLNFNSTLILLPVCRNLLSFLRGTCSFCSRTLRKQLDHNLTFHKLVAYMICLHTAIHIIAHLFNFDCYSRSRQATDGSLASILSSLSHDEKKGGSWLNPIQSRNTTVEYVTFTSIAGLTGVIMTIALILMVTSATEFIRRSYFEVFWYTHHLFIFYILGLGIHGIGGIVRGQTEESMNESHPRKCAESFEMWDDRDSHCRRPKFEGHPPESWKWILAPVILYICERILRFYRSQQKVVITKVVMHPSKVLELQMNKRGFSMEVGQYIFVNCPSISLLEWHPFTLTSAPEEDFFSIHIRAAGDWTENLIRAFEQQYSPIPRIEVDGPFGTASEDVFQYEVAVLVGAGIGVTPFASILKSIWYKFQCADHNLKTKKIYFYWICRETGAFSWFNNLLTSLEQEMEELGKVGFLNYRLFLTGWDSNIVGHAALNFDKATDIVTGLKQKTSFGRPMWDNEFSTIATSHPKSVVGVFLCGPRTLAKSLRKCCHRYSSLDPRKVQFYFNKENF
Description: Late-stage luminescence-based cell-based dose response assay to identify inhibitors of NADPH oxidase 1 (NOX1): Purchased analogs 2. The format is functional.

Test [14] has as its system Vero. Description: inhibition of WNV-induced cytopathic effect – cell-based, CPE readout (AID 1621). The format is functional. Particulars: Chlorocebus sabaeus.
A short description of test [15]: viability of uninfected HEp-2 cells – cell-based, HTS, cytotoxicity control for RSV inhibitor project, dose response (AID 2410). The format is functional. Particulars: human respiratory syncytial virus.
The nature of test [16]: HEK-293T viability loss after treatment – luminescence, T-cell screen hits, cytotoxicity control for TCR NF-kB inhibitor project, dose response (AID 489026).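 Further: cells exposed to compound about 14 hours before the viability readout.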 Type of test: functional, cell-based.
Test [17] in a line: cells.
Test [18] addresses Ephrin type-A receptor 4 (Mus musculus, UniProt Q03137). Kind of test: EphA4 ligand-binding antagonists – biochemical, colorimetric, mouse EphA4, primary screen (AID 689). The format is functional.
Test [19] concerns Danio rerio. Kind of test: In Vivo Angiogenesis Dose-Response Confirmation. [Related pubchem assays: 732 (Assay preceding this confirmatory assay.)]. The format is functional, organism-based.
Test [20] deals with Ubiquitin carboxyl-terminal hydrolase BAP1 (Homo sapiens, UniProt Q92560). Description: inhibition of BAP1 ubiquitin hydrolase activity – biochemical, dose response (AID 714). The format is functional.
Chain of Ubiquitin carboxyl-terminal hydrolase BAP1 (Q92560 whole entry): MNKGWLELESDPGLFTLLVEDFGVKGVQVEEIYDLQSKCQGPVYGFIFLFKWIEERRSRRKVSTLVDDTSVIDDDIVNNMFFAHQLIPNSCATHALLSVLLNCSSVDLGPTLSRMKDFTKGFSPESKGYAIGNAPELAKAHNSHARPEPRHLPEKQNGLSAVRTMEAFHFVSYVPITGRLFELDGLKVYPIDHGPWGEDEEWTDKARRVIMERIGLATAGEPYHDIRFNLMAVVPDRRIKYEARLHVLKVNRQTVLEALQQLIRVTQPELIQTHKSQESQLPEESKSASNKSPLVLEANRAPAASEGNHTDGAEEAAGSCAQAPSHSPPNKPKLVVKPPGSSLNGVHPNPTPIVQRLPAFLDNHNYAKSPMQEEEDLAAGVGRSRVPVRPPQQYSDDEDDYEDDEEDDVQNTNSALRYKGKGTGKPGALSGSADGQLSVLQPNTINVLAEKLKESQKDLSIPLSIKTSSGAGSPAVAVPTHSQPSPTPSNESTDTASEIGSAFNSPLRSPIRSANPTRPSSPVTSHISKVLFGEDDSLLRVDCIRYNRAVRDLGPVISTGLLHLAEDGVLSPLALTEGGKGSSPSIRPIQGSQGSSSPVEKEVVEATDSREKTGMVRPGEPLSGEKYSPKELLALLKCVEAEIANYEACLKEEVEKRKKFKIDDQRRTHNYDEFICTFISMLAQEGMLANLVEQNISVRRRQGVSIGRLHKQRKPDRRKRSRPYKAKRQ
For test [21], the target named is T2, Heat shock factor protein 1 (Mus musculus, UniProt P38532).
T2 sequence (P38532 whole entry): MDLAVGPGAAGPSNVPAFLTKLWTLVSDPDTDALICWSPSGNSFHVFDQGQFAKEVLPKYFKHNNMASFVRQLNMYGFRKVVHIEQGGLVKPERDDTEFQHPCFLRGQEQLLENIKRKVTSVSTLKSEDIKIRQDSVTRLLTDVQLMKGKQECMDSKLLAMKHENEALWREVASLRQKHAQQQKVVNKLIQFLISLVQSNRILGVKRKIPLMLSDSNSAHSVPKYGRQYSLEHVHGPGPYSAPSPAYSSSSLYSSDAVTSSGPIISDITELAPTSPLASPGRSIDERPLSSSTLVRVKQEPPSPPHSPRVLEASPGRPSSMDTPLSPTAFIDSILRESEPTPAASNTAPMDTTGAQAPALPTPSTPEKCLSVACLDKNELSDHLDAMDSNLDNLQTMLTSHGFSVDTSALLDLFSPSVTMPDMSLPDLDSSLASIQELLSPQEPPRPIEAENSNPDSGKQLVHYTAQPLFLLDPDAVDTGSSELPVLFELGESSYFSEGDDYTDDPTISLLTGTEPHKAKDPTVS
Description: enhancement of HSF1-driven luciferase signal – cell-based, NIH3T3, luminescence, dose retest, confirmation (AID 435004).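 Further: stress induced by proteasome inhibitor MG132 added 30 min after compound; luciferase reporter driven by HSF1 response element in NIH3T3 cells; actives raise luminescence as potentiators of the MG132 stress response.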 Type of test: functional.

The source made the active and inactive calls. A value given as a limit tells only on which side of the number the result lay.

Chain of Paired box protein Pax-8 (Q06710 whole entry): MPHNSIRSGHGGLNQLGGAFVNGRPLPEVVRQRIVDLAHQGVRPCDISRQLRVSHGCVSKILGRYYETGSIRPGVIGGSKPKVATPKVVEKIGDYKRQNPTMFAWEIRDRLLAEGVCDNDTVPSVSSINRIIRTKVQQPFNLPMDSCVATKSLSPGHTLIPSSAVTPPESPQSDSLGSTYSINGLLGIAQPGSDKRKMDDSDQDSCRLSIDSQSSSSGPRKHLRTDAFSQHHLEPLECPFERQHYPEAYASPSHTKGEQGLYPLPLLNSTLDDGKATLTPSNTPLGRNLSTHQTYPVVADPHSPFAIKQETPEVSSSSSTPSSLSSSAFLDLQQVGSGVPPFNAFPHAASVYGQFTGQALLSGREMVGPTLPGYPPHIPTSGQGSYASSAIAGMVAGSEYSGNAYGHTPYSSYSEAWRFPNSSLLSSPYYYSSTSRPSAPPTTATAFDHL
Chain of Ephrin type-A receptor 4 (Q03137 whole entry): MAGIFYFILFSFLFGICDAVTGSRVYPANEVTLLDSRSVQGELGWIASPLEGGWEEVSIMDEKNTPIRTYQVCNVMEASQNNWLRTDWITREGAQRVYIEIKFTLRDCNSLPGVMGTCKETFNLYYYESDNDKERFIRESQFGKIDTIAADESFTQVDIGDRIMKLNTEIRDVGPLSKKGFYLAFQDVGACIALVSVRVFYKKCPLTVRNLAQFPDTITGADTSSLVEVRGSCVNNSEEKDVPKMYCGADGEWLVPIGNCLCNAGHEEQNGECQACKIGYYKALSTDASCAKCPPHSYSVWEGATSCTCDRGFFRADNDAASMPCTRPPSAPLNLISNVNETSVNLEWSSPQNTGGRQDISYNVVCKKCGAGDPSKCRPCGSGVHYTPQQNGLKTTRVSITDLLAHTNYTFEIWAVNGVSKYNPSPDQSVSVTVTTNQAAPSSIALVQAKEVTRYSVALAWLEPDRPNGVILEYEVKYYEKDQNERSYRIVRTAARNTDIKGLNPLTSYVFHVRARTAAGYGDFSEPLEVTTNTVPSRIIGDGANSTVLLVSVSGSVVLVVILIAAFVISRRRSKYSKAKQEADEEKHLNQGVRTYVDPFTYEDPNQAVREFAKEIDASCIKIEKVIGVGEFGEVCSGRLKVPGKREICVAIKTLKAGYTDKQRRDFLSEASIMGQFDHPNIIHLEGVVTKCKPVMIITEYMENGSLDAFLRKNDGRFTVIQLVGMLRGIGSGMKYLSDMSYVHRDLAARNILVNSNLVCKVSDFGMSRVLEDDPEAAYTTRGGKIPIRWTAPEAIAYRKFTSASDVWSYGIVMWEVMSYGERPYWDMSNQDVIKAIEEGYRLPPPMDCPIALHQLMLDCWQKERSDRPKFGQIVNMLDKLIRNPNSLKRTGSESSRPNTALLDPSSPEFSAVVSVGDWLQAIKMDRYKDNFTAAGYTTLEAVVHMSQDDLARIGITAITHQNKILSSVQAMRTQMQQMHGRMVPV

In general, IC50 refers to the point on the concentration scale where inhibition reaches its midpoint. Consider `O=C(N/N=C/c1cn(-c2ccccc2)nc1-c1cccs1)c1ccc(Cl)cc1`, for which the CC50 in test [1] was 23.1 µM (active). Further, in test [2], the IC50 is > 100 µM (active).
As usually defined, the EC50 is the concentration that produces a half-maximal response. What is called AC50 is the midpoint of the concentration-response curve, whichever way the signal moves. As for `O=C(CCl)/N=c1\sccn1Cc1ccccc1Cl`, the IC50 in test [3] is 0.442 µM (active); in test [4] it was > 80 µM (inactive); in test [5] it was 0.31 µM (active). The EC50 was 0.691 µM (active) in test [6]; 1.33 µM (inconclusive) in test [9]; 0.343 µM (active) in [10]; 0.403 µM (inconclusive) in test [11]; 12.1 µM (inconclusive) in test [12]. Moreover, the concentration at half-maximal activity (AC50) is 1.64 µM (active) in test [7] and 2.74 µM (active) in test [8].
Turning to `CC=C(NNc1c(Cl)c(Cl)nc(C(=O)O)c1Cl)c1ccccc1`, the IC50 in test [13] was > 17 µM (not active).
As to `CC(C)c1oc(=O)cc2c1[C@@H](O)[C@H]1OC(=O)[C@@]3(C)CC[C@@H](O)[C@@]2(C)C13` (stereo partly specified), the results for the 50% inhibitory concentration (IC50) in test [14], in [16] and in test [17] were 17.4 µM (active), > 80 µM (inactive) and 12.2 µM (active), respectively. The CC50 in [15] is 10.4 µM (active).
On to `Cc1ccc(C)c(OCc2nnc(N)s2)c1`, for which the half-maximal inhibitory concentration (IC50) in [18] is > 100 µM (not active).
For the compound `O=C1Nc2ccc(F)cc2/C1=C1/Nc2ccc(Br)cc2/C1=N\O`, the half-inhibitory concentration (IC50) in [19] is 0.29 µM (not active).
For `O=C1CC(c2ccoc2)CC(Nc2ccccc2)=C1C(=O)Nc1ccccc1` (stereo unspecified), in test [20], the IC50 was > 50 µM (not active). The EC50 in test [21] is > 260 µM (inactive).

The values above are taken from ChEMBL document CHEMBL1201862, “PubChem BioAssay data set” (2004).
